In the supplement of paper PMC12463676, “Small-molecule dissolution of stress granules by redox modulation benefits ALS models” (Nature Chemical Biology, 2025):

What was measured:
[1] = compound: NC(=O)CCCCC1CCSS1 [lipoamide]; assay: thermal stability z-score vs DMSO; higher = more thermally stabilized by treatment; conditions: HeLa, lipoamide concentration 100 µM
Description: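 Cellular thermal proteome profiling in HeLa cells. Cells were treated with 100 µM lipoamide for 1 h, with or without 1 mM arsenate for a further 1 h, then heated to ten temperatures (37-66.3 °C), and soluble protein was quantified by TMT mass spectrometry relative to 0.1% DMSO controls. The thermal stability score (sum of log2 fold changes minus the abundance score) was transformed to a z-score; mean of n = 3 experiments.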

[2] = compound: O=[As]([O-])(O)O.[K+] [potassium arsenate]; assay: as above; conditions: HeLa; arsenate concentration 1 mM
Description: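 Cellular thermal proteome profiling in HeLa cells treated with 1 mM arsenate for 1 h (DMSO pretreatment), heated to ten temperatures (37-66.3 °C). Soluble protein was quantified by TMT mass spectrometry relative to DMSO controls; the thermal stability score was transformed to a z-score; mean of n = 3 experiments.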

[3] = arsenate co-treatment: 1 mM arsenate 1 h
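Further: each temperature applied for 3 min, abundance score taken as mean log2 fold change at the two lowest temperatures, z-score obtained by mean subtraction and division by SD.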

Sequence of UniProt Q96MW5 (Q96MW5 whole entry): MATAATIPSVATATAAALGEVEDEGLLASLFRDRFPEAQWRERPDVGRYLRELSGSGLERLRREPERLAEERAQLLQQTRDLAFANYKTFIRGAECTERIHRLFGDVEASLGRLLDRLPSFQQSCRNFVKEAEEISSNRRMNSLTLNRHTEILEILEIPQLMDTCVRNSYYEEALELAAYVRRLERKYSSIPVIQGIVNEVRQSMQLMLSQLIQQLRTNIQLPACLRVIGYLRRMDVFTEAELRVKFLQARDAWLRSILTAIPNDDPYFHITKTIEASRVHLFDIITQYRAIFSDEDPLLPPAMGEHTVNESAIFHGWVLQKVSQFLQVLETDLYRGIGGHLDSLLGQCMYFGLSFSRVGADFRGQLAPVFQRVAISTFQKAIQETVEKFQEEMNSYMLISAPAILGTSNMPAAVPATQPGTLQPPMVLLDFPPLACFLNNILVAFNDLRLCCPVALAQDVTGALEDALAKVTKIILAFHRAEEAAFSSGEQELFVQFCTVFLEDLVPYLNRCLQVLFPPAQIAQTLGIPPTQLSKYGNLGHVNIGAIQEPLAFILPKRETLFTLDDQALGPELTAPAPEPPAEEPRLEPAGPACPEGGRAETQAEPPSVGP
Sequence of UniProt P55809 (P55809 whole entry): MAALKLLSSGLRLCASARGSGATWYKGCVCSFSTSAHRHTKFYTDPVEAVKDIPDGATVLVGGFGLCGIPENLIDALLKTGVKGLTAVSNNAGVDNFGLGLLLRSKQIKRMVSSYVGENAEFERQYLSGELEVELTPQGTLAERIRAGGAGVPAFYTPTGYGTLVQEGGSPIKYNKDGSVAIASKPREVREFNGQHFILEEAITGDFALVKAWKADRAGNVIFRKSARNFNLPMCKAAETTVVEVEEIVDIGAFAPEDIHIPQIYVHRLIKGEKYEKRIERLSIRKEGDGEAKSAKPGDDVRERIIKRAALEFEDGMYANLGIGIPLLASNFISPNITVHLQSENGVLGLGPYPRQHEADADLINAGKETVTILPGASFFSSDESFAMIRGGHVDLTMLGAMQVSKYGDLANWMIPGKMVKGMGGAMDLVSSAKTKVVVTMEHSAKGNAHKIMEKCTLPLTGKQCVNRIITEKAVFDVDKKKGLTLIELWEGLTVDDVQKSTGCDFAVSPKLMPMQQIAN
Sequence of UniProt P11388 (P11388 whole entry): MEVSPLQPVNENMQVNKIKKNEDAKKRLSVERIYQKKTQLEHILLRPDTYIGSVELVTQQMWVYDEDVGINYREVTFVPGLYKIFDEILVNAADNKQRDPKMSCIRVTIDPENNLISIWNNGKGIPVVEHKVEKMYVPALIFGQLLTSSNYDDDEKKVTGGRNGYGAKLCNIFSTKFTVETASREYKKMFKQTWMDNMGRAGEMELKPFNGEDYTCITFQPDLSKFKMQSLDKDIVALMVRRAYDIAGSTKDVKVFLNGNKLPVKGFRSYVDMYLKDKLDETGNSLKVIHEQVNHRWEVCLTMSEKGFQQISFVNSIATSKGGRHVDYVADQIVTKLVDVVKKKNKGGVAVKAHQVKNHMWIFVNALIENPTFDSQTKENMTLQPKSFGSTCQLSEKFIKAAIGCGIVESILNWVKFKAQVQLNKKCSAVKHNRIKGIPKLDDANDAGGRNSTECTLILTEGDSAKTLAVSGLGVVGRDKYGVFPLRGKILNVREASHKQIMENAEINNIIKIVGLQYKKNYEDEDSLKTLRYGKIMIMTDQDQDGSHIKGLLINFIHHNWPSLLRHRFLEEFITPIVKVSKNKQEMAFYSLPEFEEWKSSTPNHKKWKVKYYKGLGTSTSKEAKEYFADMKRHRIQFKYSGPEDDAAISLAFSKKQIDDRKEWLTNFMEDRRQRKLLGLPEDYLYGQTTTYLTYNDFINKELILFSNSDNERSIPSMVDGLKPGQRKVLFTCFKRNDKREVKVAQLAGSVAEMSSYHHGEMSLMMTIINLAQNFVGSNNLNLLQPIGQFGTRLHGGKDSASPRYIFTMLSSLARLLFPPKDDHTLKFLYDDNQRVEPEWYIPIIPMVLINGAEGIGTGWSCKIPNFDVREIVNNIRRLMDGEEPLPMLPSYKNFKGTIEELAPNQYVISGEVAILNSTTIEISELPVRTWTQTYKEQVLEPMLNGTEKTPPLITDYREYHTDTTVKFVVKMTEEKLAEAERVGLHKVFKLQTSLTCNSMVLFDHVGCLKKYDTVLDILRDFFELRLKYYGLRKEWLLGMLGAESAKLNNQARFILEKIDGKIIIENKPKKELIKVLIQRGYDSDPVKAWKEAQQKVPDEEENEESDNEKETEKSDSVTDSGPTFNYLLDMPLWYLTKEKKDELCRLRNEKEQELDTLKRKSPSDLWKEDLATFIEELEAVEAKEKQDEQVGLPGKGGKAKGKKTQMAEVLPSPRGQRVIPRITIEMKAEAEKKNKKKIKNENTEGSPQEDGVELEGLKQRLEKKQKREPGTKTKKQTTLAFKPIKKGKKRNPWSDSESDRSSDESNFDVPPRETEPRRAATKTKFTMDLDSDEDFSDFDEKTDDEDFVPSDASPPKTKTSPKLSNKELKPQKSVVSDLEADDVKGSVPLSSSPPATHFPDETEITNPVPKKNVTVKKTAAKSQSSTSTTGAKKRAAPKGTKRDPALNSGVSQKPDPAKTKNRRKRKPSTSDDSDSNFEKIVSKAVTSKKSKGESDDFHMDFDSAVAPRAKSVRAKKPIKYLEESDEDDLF
Sequence of UniProt Q8WW59 (Q8WW59 whole entry): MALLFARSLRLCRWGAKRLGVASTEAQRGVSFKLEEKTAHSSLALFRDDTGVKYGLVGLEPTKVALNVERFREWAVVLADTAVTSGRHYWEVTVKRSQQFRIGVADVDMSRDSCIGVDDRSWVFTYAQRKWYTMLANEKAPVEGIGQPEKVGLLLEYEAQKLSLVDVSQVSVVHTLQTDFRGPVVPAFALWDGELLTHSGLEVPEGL
Sequence of UniProt Q15291 (Q15291 whole entry): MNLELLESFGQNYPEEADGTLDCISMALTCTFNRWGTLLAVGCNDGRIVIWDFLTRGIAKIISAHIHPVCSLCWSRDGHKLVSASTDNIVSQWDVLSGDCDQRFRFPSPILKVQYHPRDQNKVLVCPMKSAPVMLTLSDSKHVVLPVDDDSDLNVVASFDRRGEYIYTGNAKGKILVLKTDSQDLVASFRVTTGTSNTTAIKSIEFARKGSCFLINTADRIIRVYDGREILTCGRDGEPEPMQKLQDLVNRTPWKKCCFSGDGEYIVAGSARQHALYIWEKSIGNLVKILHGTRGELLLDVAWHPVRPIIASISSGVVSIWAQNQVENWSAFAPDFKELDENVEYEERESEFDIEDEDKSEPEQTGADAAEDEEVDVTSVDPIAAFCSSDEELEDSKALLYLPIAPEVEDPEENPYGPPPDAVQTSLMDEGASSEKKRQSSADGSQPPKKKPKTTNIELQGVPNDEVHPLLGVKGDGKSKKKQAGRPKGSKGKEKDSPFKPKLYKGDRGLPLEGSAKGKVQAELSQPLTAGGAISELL
Sequence of UniProt Q8IWA0 (Q8IWA0 whole entry): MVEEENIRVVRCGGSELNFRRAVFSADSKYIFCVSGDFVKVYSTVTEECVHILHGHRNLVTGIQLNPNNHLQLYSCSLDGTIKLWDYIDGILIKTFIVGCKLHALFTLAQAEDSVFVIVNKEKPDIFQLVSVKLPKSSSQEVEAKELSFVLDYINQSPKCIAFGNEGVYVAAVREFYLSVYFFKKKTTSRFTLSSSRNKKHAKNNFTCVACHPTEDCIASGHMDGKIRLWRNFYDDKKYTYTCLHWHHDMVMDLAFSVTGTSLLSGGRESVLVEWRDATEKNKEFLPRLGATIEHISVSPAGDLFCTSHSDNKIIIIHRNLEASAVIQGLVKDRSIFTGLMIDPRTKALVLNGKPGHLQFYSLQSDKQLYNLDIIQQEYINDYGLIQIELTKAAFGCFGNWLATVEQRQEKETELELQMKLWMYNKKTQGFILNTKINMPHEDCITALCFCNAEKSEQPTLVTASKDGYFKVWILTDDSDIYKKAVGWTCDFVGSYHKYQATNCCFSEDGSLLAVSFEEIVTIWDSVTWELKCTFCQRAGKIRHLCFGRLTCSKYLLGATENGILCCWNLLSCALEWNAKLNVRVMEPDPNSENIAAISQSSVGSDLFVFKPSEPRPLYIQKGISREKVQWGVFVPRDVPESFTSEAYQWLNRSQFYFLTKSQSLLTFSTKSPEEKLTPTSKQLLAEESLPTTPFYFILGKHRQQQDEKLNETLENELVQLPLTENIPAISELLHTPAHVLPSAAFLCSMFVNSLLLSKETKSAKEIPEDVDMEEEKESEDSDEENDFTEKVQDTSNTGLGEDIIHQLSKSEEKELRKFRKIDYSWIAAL
Sequence of UniProt P61758 (P61758 whole entry): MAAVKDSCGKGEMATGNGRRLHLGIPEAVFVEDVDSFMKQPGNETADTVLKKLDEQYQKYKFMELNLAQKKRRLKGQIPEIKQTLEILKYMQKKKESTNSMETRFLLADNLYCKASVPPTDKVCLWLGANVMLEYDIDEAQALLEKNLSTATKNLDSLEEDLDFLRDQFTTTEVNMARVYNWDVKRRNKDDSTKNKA
Sequence of UniProt P49441 (P49441 whole entry): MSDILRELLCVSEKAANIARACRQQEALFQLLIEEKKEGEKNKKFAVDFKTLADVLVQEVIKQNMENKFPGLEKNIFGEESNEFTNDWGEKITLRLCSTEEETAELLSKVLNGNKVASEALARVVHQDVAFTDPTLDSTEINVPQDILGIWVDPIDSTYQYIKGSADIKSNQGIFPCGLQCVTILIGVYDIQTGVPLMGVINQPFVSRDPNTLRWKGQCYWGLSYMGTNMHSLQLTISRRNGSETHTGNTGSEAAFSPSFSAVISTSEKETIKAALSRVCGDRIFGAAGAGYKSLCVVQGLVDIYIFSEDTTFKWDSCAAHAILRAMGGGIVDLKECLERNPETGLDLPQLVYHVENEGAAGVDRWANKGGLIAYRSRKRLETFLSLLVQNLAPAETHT
Sequence of UniProt P60983 (P60983 whole entry): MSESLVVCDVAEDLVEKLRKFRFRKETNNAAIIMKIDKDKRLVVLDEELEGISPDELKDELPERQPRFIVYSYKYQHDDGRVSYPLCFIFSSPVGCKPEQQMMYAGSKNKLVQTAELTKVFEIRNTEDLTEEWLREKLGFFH

Target | thermal stability z-score [1, 3] | thermal stability z-score ([1]; arsenate co-treatment: none) | thermal stability z-score [2]
EIF4A2 (UniProt Q14240) | 1.14 | 0.893 | 0.658
PPL (UniProt O60437) | -0.117 | -0.141 | 0.125
PTGS2 (UniProt P35354) | -0.361 | 0.261 | 0.269
PAPOLG (UniProt Q9BWT3) | -0.086 | 0.083 | 0.167
NUS1 (UniProt Q96E22) | 0.421 | 0.252 | 0.015
COG8 (UniProt Q96MW5) | 0.022 | 0.151 | 0.149
USP6NL (UniProt Q92738) | 0.194 | -0.0598 | 0.0467
GMFB (UniProt P60983) | 0.0996 | 0.368 | -0.675
DENND4B (UniProt O75064) | 0.182 | -0.0196 | 0.288
SCRIB | -0.00971 | -0.22 | 0.128
PFKP (UniProt Q01813) | 0.365 | 0.542 | 0.0448
VDAC1 (UniProt P21796) | 0.311 | 0.385 | 0.905
GPD1L (UniProt Q8N335) | 0.106 | -0.108 | -0.935
NCKIPSD (UniProt Q9NZQ3) | 0.127 | 0.0916 | 0.255
WDYHV1 (UniProt Q96HA8) | 0.206 | 0.157 | -0.625
PPM1F (UniProt P49593) | -0.361 | -0.757 | -0.617
ESYT2 (UniProt A0FGR8) | -0.934 | -0.479 | -0.306
YARS2 (UniProt Q9Y2Z4) | -0.741 | -0.156 | 0.423
NKRF (UniProt O15226) | -0.0267 | 0.00359 | -0.311
TOP2A (UniProt P11388) | -0.141 | 0.0459 | -0.293
EFTUD2 (UniProt Q15029) | 0.0587 | -0.0524 | -0.28
ATP5A1 (UniProt P25705) | -0.144 | -0.0322 | -0.382
SPRYD4 (UniProt Q8WW59) | 2.66 | 2.54 | 1.75
RPRD1A (UniProt Q96P16) | -0.123 | -0.0762 | -0.037
INPP1 (UniProt P49441) | -1.52 | -1.35 | -1.9
WDR75 (UniProt Q8IWA0) | 0.0395 | 0.0658 | 0.152
RAB6A (UniProt P20340) | 0.448 | 0.693 | 0.284
DKC1 (UniProt O60832) | 0.735 | 0.39 | 0.437

Target | thermal stability z-score [1, 3] | thermal stability z-score ([1]; arsenate co-treatment: none) | thermal stability z-score [2]
PSMC6 (UniProt P62333) | 0.467 | 0.219 | -0.23
HERC2 (UniProt O95714) | -0.947 | -1.04 | 0.0415
EHD1 (UniProt Q9H4M9) | -0.0636 | 0.13 | -0.0304
RERE (UniProt Q9P2R6) | 0.0956 | -0.103 | 0.00489
HNRNPM (UniProt P52272) | -0.523 | -0.135 | -1.87
AGRN (UniProt O00468) | -0.718 | -1.6 | 0.582
PAK1 (UniProt Q13153) | 0.413 | 0.286 | 0.771
ACOX1 (UniProt Q15067) | 0.516 | 0.379 | 0.389
SYNE2 (UniProt Q8WXH0) | -0.0307 | 0.18 | -0.123
OPA1 (UniProt O60313) | -0.697 | -0.456 | 0.749
TNFAIP8 (UniProt O95379) | 0.127 | -0.421 | 0.147
VBP1 (UniProt P61758) | -0.615 | -0.366 | -0.72
TM9SF2 (UniProt Q99805) | -0.509 | -0.486 | 1.03
TGFBRAP1 (UniProt Q8WUH2) | 0.0561 | -0.0483 | -0.0443
ASF1B (UniProt Q9NVP2) | -0.0916 | -0.0291 | -0.169
CCAR1 (UniProt Q8IX12) | 0.657 | 0.27 | -0.106
MLST8 (UniProt Q9BVC4) | -0.537 | 0.0244 | 0.14
MTCL1 (UniProt Q9Y4B5) | -0.242 | 0.0775 | -1.54
IGBP1 (UniProt P78318) | 0.172 | 0.441 | -0.613
PSMD9 (UniProt O00233) | -0.33 | 0.295 | -0.281
DEK (UniProt P35659) | 0.116 | 0.695 | -0.316
PPTC7 (UniProt Q8NI37) | -0.248 | -0.287 | 0.222
OXCT1 (UniProt P55809) | -0.159 | -0.108 | -1.12
RBBP5 (UniProt Q15291) | 1.23 | 0.518 | -0.769
ITGA3 (UniProt P26006) | 0.122 | 0.207 | 0.402
PLRG1 (UniProt O43660) | 1.67 | -0.0202 | -0.346
TOE1 (UniProt Q96GM8) | 0.165 | 0.146 | -2.54
